The source of these data is patent KR20190126525A, “신규 소듐채널 저해 화합물, 이의 제조방법, 및 이를 포함하는 소듐채널 관련 질환의 예방 또는 치료용 약학적 조성물” (이화여자대학교 산학협력단, priority 2018, dated 2019).

For test [1], the target named is T1, Nav1.7 (Homo sapiens, UniProt Q15858).
T1 construct: host or cells: HEK cells
Briefly: VIPR (voltage/ion probe reader) membrane potential assay, Nav1.7. It counts as cell-based. To be noted: for inhibition at 10 µM: HEK293, HEK cells expressing hNav1.7, veratridine; for selective inhibitory activity against Nav1.7: Nav1.7 versus Nav1.8, 10uM, from Table 2.

In test [2] the target is T2, Nav1.8 (Homo sapiens, UniProt Q9Y5Y9).
T2 construct: host or cells: HEK cells
T2 sequence (Q9Y5Y9 whole entry): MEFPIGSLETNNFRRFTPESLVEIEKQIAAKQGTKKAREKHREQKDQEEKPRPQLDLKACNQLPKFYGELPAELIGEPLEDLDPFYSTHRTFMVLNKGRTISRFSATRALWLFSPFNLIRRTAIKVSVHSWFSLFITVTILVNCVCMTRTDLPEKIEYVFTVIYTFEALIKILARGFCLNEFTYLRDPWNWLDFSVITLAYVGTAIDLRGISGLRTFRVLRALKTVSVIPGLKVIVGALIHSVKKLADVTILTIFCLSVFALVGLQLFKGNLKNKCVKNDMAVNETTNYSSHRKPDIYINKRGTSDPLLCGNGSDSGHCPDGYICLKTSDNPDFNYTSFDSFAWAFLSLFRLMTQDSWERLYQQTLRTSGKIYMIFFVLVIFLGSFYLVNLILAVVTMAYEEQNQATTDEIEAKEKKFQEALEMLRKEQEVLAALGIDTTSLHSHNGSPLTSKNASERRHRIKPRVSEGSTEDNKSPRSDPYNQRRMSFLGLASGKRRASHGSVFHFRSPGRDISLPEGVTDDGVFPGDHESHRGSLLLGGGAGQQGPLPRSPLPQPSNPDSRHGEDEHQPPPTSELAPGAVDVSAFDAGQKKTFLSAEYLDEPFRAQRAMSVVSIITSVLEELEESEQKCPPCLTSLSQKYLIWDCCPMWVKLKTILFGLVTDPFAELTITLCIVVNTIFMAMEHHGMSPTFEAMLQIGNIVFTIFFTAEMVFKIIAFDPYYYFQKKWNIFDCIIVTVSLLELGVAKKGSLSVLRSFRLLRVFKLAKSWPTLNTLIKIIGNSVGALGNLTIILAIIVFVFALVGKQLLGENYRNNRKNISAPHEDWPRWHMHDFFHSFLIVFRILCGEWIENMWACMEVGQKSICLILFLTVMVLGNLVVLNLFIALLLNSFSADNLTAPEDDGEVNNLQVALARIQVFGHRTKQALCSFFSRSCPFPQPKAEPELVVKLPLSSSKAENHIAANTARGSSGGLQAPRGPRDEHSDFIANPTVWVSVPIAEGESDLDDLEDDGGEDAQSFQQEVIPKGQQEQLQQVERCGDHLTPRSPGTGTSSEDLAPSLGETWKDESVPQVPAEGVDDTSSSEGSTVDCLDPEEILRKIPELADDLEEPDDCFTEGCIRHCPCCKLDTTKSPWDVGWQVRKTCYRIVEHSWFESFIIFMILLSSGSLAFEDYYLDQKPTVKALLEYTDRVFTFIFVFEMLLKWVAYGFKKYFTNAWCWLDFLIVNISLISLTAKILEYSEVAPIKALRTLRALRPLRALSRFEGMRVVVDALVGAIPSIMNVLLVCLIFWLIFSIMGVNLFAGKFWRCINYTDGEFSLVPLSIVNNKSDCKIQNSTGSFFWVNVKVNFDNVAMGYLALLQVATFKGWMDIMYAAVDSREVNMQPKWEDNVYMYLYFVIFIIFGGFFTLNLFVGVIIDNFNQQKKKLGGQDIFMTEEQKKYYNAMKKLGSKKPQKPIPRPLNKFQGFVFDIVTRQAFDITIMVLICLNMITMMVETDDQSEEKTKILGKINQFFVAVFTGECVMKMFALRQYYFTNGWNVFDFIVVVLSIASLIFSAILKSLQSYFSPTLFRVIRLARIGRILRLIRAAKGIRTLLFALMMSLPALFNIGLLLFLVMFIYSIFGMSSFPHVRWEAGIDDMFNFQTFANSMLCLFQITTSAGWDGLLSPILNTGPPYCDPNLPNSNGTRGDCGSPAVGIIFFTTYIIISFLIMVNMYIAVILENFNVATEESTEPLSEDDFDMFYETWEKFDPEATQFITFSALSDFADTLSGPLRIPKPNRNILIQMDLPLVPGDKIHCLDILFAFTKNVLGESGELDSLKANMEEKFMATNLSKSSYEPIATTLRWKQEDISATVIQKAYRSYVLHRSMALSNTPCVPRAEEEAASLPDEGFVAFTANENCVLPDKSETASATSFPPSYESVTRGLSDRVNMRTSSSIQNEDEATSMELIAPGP
The test can be described thus: VIPR (voltage/ion probe reader) membrane potential assay, Nav1.8. The test is classed as cell-based. To be noted: HEK293, HEK cells expressing hNav1.8, veratridine.

T1 sequence (Q15858 whole entry): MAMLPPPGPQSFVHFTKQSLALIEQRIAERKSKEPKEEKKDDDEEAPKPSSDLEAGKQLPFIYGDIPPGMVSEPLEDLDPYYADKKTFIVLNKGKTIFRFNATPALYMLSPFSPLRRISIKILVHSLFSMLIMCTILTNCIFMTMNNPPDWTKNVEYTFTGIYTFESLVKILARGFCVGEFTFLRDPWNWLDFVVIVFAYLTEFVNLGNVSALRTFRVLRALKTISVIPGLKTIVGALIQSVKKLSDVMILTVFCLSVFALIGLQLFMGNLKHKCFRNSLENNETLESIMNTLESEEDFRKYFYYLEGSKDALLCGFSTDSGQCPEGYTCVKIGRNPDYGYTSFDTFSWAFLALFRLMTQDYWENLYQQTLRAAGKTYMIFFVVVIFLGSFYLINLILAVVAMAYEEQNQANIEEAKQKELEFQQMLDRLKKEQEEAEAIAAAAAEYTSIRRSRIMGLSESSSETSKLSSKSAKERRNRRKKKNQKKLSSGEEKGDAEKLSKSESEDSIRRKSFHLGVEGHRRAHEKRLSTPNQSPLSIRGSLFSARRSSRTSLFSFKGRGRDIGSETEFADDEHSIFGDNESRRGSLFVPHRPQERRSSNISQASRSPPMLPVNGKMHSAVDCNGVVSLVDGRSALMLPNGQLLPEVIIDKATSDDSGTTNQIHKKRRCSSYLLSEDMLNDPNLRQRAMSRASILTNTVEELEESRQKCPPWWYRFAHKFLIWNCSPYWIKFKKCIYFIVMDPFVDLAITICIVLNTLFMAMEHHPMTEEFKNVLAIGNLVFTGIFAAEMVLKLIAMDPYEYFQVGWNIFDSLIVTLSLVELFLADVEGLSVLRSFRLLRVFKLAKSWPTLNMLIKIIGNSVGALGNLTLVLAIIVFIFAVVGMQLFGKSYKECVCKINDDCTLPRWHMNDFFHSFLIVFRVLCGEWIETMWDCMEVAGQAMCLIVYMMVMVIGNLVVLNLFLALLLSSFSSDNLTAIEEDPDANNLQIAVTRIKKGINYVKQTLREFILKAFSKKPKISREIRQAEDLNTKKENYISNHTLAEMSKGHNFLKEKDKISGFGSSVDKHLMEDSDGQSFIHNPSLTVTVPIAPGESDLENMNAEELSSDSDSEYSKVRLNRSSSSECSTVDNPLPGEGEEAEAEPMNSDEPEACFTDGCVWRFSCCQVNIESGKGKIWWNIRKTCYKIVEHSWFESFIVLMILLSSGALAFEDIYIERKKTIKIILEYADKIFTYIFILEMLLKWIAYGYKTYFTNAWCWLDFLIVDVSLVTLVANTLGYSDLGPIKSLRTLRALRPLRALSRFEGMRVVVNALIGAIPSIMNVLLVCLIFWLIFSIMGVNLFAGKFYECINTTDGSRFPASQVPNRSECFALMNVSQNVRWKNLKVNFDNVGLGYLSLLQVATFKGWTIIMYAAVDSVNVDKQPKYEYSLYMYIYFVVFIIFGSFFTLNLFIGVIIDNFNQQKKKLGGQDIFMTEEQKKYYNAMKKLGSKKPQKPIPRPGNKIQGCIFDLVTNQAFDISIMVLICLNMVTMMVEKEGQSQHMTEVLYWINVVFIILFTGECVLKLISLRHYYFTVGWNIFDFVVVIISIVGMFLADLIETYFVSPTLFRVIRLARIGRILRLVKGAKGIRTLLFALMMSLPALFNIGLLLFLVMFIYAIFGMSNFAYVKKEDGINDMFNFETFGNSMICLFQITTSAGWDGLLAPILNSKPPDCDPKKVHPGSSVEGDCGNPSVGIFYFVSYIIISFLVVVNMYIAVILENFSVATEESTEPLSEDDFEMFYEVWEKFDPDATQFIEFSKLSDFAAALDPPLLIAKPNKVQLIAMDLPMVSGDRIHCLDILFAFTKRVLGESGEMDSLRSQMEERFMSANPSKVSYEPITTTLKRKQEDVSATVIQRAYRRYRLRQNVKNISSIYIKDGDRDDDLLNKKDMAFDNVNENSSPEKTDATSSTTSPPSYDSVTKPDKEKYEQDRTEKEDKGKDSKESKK

`C[C@H](NCc1c[nH]c2ccc(OCc3ccccc3)cc12)C(N)=O` [실시예 1, (S)-2-((5-(벤질옥시)-1H-인돌-3-일)메틸아미노)프로판아미드]: the inhibition (usually the drop in the measured response relative to a control, in per cent) at 10 µM in test [1] is 5.13%; in test [2], 19.7%. Take `C[C@H](NCc1c[nH]c2ccc(Br)cc12)C(N)=O` [실시예 2, (S)-2-((5-브로모-1H-인돌-3-일)메틸아미노)프로판아미드]: in test [1], the inhibition at 10 µM was 59.9% and the “selective inhibitory activity against Nav1.7” value (from here on “selective inhibitory activity”) is given as “선택적인 저해 활성”. Further, in test [2], the inhibition at 10 µM came to 27.4%. Take `C[C@H](NCc1c[nH]c2ccc(Cl)cc12)C(N)=O` [실시예 3, (S)-2-((5-클로로-1H-인돌-3-일)메틸아미노)프로판아미드]: the inhibition at 10 µM in test [1] was determined as 2.46%; in test [2] it was 20.7%. For `COc1ccc2[nH]cc(CN[C@@H](C)C(N)=O)c2c1` [실시예 5, (S)-2-((5-메톡시-1H-인돌-3-일)메틸아미노)프로판아미드], in that order: 4.3% and 18.3%.

Regarding `NC(=O)[C@@H](NCc1c[nH]c2ccc(Cl)cc12)c1ccccc1` [실시예 7, (S)-2-((5-클로로-1H-인돌-3-일)메틸아미노)-2-페닐아세트아미드], the inhibition at 10 µM in test [2] worked out at 3.45%. Same read-out and setting: with `NC(=O)[C@@H](NCc1cc(-c2ccc(Cl)cc2)on1)c1ccccc1` [실시예 9, (S)-2-((5-(4-클로로페닐)이속사졸-3-일)메틸아미노)-2-페닐아세트아미드] the figure was 1.77%.

`NC(=O)[C@@H](NCc1ccc(Oc2ccc(F)cc2)cc1)c1ccccc1` [실시예 10, (S)-2-(4-(4-플루오로페녹시)벤질아미노)-2-페닐아세트아미드]: the results for the inhibition at 10 µM in test [1] and in test [2] were 31.3% and 11.3%, respectively. The matching figures for `NC(=O)[C@@H](NCc1ccc(Oc2ccc(Cl)cc2)cc1)c1ccccc1` [실시예 11, (S)-2-(4-(4-클로로페녹시)벤질아미노)-2-페닐아세트아미드]: 3.68% and 19.5%. Regarding `CC(CCc1ccccc1)NCc1ccc(-c2cccc(C(F)(F)F)c2)o1` (stereo not shown) [실시예 12, 4-페닐-N-((5-(3-(트리플루오로메틸)페닐)퓨란-2-일)메틸)부탄-2-아민], in test [1], the inhibition at 10 µM came to 104% and the “selective inhibitory activity” value is reported as “선택적인 저해 활성”. The inhibition at 10 µM in test [2] amounted to 54.4%. For `CC(CCc1ccccc1)NCc1ccc(N2CCN(C)CC2)cc1` (stereo not shown) [실시예 13, N-(4-(4-메틸피페라진-1-일)벤질)-4-페닐부탄-2-아민], in that order: 66.4%, “선택적인 저해 활성” and 4.97%. For `CC(CCc1ccccc1)NCc1ccc(N2CCOCC2)cc1` (stereo not shown) [실시예 14, N-(4-모폴리노벤질)-4-페닐부탄-2-아민], in that order: 87.1%, “선택적인 저해 활성” and 10.2%. For the molecule `CC(CCc1ccccc1)NCc1ccc(-c2ccc(Cl)cc2)o1` (stereo not shown) [실시예 15, N-((5-(4-클로로페닐)퓨란-2-일)메틸)-4-페닐부탄-2-아민], the inhibition at 10 µM is 34.6% in test [1] and 42.2% in test [2]. Regarding `COc1ccc(-c2ccc(CNC(C)CCc3ccccc3)o2)cc1Cl` (stereo not shown) [실시예 18, N-((5-(3-클로로-4-메톡시페닐)퓨란-2-일)메틸)-4-페닐부탄-2-아민], in test [1], the inhibition at 10 µM was 65.9% and the “selective inhibitory activity” value is “선택적인 저해 활성”. Also, the inhibition at 10 µM in test [2] stood at 6.75%. Turning to `CC(CCc1ccccc1)NCc1ccc(-c2cncnc2)cc1` (stereo not shown) [실시예 19, 4-페닐-N-(4-(피리미딘-5-일)벤질)부탄-2-아민], the inhibition at 10 µM in test [1] stood at 29.8%. `CC(CCc1ccccc1)NCc1ccc(Oc2ccc(C#N)cc2)cc1` (stereo not shown) [실시예 20, 4-(4-((4-페닐부탄-2-일)아미노메틸)페녹시)벤조나이트릴]: in test [1], the inhibition at 10 µM was 106% and the “selective inhibitory activity” value is given as “선택적인 저해 활성”. In test [2], the inhibition at 10 µM came out at 42.2%. Take `CC(CCc1ccccc1)NCc1c[nH]c2ccc(Cl)cc12` (stereo not shown) [실시예 21, N-((5-클로로-1H-인돌-3-일)메틸)-4-페닐부탄-2-아민]: the inhibition at 10 µM in test [1] came to 38.5%. The same measure, in the same setting: the same measure for `CC(CCc1ccccc1)NCc1c[nH]c2ccccc12` (stereo not shown) [실시예 22, N-((1H-인돌-3-일)메틸)-4-페닐부탄-2-아민]: 14.2%; for `CC(CCc1ccccc1)NCc1ccc(Oc2ccc(F)cc2)cc1` (stereo not shown) [실시예 23, N-(4-(4-플루오로페녹시)벤질)-4-페닐부탄-2-아민]: 33.9%. Still for that read-out and setting: the same measure for `CC(CCc1ccccc1)NCc1ccc(Oc2ccc(Cl)cc2)cc1` (stereo not shown) [실시예 24, N-(4-(4-클로로페녹시)벤질)-4-페닐부탄-2-아민]: 10.2%. On to `CC(CCc1ccccc1)NC(=O)c1ccc(-c2ccccc2)cc1` (stereo not shown) [실시예 25, N-(4-페닐부탄-2-일)-[1,1'-바이페닐]-4-카복스아미드], for which, in test [1], the inhibition at 10 µM worked out at 84% and the “selective inhibitory activity” value is given as “선택적인 저해 활성”. Moreover, the inhibition at 10 µM in test [2] stood at 31.2%. Consider `CC(CCc1ccccc1)NC(=O)c1cccc2ccccc12` (stereo not shown) [실시예 27, N-(4-페닐부탄-2-일)-1-나프타미드], for which the figures for the inhibition at 10 µM in test [1] and in test [2] were 4.12% and 59.2%, respectively. Turning to `Cc1onc(-c2ccc(Cl)cc2)c1C(=O)NC(C)CCc1ccccc1` (stereo not shown) [실시예 28, 3-(4-클로로페닐)-5-메틸-N-(4-페닐부탄-2-일)이속사졸-4-카복스아미드], in test [1], the inhibition at 10 µM was 24.4%. Same read-out and setting: the same measure for `COc1cc(CNCc2c[nH]c3ccccc23)cc(OC)c1OC` [실시예 29, N-((1H-인돌-3-일)메틸)-1-(3,4,5-트리메톡시페닐)메탄아민]: 16.4%. On to `COc1cc(CNCc2c(-c3ccccc3)[nH]c3ccccc23)cc(OC)c1OC` [실시예 30, 1-(2-페닐-1H-인돌-3-일)-N-(3,4,5-트리메톡시페닐)메탄아민], for which the inhibition at 10 µM in test [1] is 12.1%; in test [2], 3.3%. As for `COc1cc(CNCc2ccc(Oc3ccc(F)cc3)cc2)cc(OC)c1OC` [실시예 31, N-(4-(4-플루오로페녹시)벤질)-1-(3,4,5-트리메톡시페닐)메탄아민], the inhibition at 10 µM in test [1] is 16.6%.

Consider `COc1cc(CNCc2ccc(Oc3ccc(Cl)cc3)cc2)cc(OC)c1OC` [실시예 32, N-(4-(4-클로로페녹시)벤질)-1-(3,4,5-트리메톡시페닐)메탄아민], for which, in test [1], the inhibition at 10 µM is 15.2%. Consider `COc1cc(CNCc2c[nH]c3ccc(OCc4ccccc4)cc23)cc(OC)c1OC` [실시예 33, 1-(5-(벤질옥시)-1H-인돌-3-일)-N-(3,4,5-트리메톡시벤질)메탄아민], for which the inhibition at 10 µM was found to be 34.9% in test [1] and 5.87% in test [2]. The matching figures for `COc1cc(CNCc2c[nH]c3ccc(Br)cc23)cc(OC)c1OC` [실시예 34, 1-(5-브로모-1H-인돌-3-일)-N-(3,4,5-트리메톡시벤질)메탄아민]: 27% and 13.9%. In the case of `COc1cc(CNCc2c[nH]c3cc(F)ccc23)cc(OC)c1OC` [실시예 35, 1-(6-플루오로-1H-인돌-3-일)-N-(3,4,5-트리메톡시벤질)메탄아민], the inhibition at 10 µM in test [1] was 38.2%. On the same count and under the same terms, the same measure for `COc1ccc2[nH]cc(CNCc3cc(OC)c(OC)c(OC)c3)c2c1` [실시예 36, 1-(5-메톡시-1H-인돌-3-일)-N-(3,4,5-트리메톡시벤질)메탄아민]: 23.7%. Consider `COc1cc(CNCc2c[nH]c3c([N+](=O)[O-])cccc23)cc(OC)c1OC` [실시예 37, 1-(7-니트로-1H-인돌-3-일)-N-(3,4,5-트리메톡시벤질)메탄아민], for which the figures for the inhibition at 10 µM in test [1] and in test [2] were 4.08% and 8.81%, respectively. For `COc1cc(CNC(=O)c2ccc(-c3ccccc3)cc2)cc(OC)c1OC` [실시예 38, N-(3,4,5-트리메톡시벤질)-[1,1'-바이페닐]-4-카복스아미드], in that order: 6.9% and 18.3%. Turning to `COc1cc(CNC(=O)c2ccc3ccccc3n2)cc(OC)c1OC` [실시예 41, N-(3,4,5-트리메톡시벤질)퀴놀린-2-카복스아미드], in test [1], the inhibition at 10 µM worked out at 71.7% and the “selective inhibitory activity” value is “선택적인 저해 활성”. Also, the inhibition at 10 µM in test [2] stood at 19.3%.
